Results on 9 compounds are retold here after EP1444982A1, “The use of purine derivatives as selective kinase inhibitors” (MERCKLE GMBH, priority 2003, dated 2004).

Common to all, as to type: biochemical
Assay [1] addresses c-RAF (h) (Homo sapiens, UniProt P04049). The assay can be described thus: Kinase inhibition assay (33P-ATP, P30 filter, scintillation counting): c-RAF. The settings on record: 40 min; 30µM Testsubstanz (100 µM ATP); read-out: Hemmung von Kinasen in % c-RAF (h). The protocol:
(§1) Alle Kinasen werden auf zehnfache Arbeitskonzentration vor Anwendung in dem Essay verdünnt. Die Zusammensetzung des Verdünnungspuffers ist für jede Kinase in der nachfolgenden Tabelle angegeben.
(§2) Alle Substrate werden gelöst und auf eine Stammlösung in entsalztem Wasser verdünnt.
(§3) c-RAF (ha)(5-10 mU) in einem Endreaktionsvolumen von 25 µl wird mit 25 mM Tris pH 7.5,.0.02 mM EGTA, 0.66 mg/ml Myelin-Basisprotein, 10 mM MgAcetat und [γ-^33P-ATP] inkubiert (spezifische Aktivität etwa 50 cpm/pmol, Konzentration wie erforderlich). Die Reaktion wird durch Zugabe von Mg^2+[γ-^33P-ATP] initiiert. Nach 40-minütiger Inkubation bei Raumtemperatur wird die Reaktion durch Zugabe von 5 µl einer 3 %igen Phosphorsäurelösung gestoppt. 10 µl der Reaktion werden dann auf ein P30-Filter gegeben und dreimal jeweils 5 Minuten in 50 mM Phosphorsäure und einmal in Methanol gewaschen. Anschließend wird getrocknet und eine Szintillationszählung durchgeführt.

Assay [2] has as its target GSK3β (h) (Homo sapiens, UniProt P49841). The assay can be described thus: Kinase inhibition assay (33P-ATP, P30 filter, scintillation counting): GSK3β. As to conditions: 30µM Testsubstanz (100 µM ATP); read-out: Hemmung von Kinasen in % GSK3β (h). Here is the method: as §1, §2
as §3, with “GSK3β (h)(5-10mU) in” for “c-RAF (ha)(5-10 mU) in”, “mit 8” for “mit 25”, “mM MOPS” for “mM Tris”, “pH 7.0, 0.2” for “pH 7.5,.0.02”, “mM EDTA, 20 µM […](p) EDEEE (phospho GS2 Peptid),” for “mM EGTA, 0.66 mg/ml Myelin-Basisprotein,”, “etwa 500” for “etwa 50”

The target of assay [3] is JNK3 (r) (Rattus norvegicus, UniProt P49187). The assay can be described thus: Kinase inhibition assay: JNK3. The settings on record: 30µM Testsubstanz (100 µM ATP); read-out: Hemmung von Kinasen in % JNK3 (r).
Sequence of JNK3 (r) (P49187 whole entry): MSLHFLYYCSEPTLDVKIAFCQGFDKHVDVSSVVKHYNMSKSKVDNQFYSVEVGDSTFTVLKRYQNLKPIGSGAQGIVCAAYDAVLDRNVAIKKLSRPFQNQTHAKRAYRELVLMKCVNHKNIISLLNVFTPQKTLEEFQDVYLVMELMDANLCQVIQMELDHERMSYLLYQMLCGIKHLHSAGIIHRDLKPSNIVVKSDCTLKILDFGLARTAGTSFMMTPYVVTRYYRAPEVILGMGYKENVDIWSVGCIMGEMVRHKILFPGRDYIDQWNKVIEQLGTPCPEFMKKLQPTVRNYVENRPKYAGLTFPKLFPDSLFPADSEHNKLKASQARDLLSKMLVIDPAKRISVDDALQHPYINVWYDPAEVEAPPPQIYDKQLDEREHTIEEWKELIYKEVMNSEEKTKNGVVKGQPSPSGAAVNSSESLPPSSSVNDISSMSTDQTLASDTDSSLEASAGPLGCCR
Text: as §1, §2

For assay [4], the target named is Lck (h) (Homo sapiens, UniProt P06239). The assay can be described thus: Kinase inhibition assay (33P-ATP, P30 filter, scintillation counting): Lck. The settings on record: 30µM Testsubstanz (100 µM ATP); read-out: Hemmung von Kinasen in % Lck (h). The protocol:
as §1, §2
as §3, with “Lck (h)(5-10 mU)” for “c-RAF (ha)(5-10 mU)”, “mit 50” for “mit 25”, “pH 7.5, 0.1” for “pH 7.5,.0.02”, “EGTA, 0.1 mM NaVanadate, 250 µM KVEKIGEGTYGVVYK (Cdc2 Peptid),” for “EGTA, 0.66 mg/ml Myelin-Basisprotein,”, “etwa 500” for “etwa 50”

The target in assay [5] is MAPK1 (h) (Homo sapiens, UniProt P27361). The assay can be described thus: Kinase inhibition assay: MAPK1. As to conditions: 30µM Testsubstanz (100 µM ATP); read-out: Hemmung von Kinasen in % MAPK1 (h).
Sequence of MAPK1 (h) (P27361 whole entry): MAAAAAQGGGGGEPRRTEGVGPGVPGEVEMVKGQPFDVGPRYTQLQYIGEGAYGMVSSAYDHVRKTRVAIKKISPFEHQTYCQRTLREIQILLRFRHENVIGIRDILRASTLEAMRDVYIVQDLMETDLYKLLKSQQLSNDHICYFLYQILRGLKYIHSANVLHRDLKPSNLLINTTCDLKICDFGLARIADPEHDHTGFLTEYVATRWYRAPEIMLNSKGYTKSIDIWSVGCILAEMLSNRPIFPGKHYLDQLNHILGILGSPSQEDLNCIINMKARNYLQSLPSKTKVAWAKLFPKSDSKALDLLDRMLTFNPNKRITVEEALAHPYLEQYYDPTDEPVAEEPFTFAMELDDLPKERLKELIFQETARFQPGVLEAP
Text: as §1, §2

In assay [6] the target is MAPK2 (h) (Homo sapiens, UniProt P28482). The assay can be described thus: Kinase inhibition assay: MAPK2. The settings on record: 30µM Testsubstanz (100 µM ATP); read-out: Hemmung von Kinasen in % MAPK2 (h).
Sequence of MAPK2 (h) (P28482 whole entry): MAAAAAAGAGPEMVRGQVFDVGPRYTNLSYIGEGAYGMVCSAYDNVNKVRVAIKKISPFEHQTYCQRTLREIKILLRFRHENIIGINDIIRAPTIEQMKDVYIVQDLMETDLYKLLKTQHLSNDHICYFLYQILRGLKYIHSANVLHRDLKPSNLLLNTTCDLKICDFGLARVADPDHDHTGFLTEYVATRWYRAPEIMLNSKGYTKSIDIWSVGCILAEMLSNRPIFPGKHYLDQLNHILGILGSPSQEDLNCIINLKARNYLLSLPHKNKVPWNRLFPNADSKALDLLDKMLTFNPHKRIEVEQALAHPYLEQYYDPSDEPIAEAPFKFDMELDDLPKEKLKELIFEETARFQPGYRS
Text: as §1, §2

Assay [7] addresses MEK1 (h) (Homo sapiens, UniProt Q02750). The assay can be described thus: Kinase inhibition assay: MEK1 (coupled to MAPK2 assay). The settings on record: 30µM Testsubstanz (100 µM ATP); read-out: Hemmung von Kinasen in % MEK1 (h). Here is the method: as §1, §2
MEK1 (h)(1-5 mU) in einem Endreaktionsvolumen von 25 µl wird mit 50 mM Tris pH 7.5, 0.2 mM EGTA, 0.1 % b-Mercaptoethanol, 0,01 % Brij-35, 1 µM inaktives MAPK2 (m), 10 mM MgAcetat und kaltem ATP inkubiert (Konzentration wie erforderlich). Die Reaktion wird durch Zugabe von MgATB initiiert. Nach 40-minütiger Inkubation bei Raumtemperatur werden […] dieses Inkubationsgemisches dazu verwendet, den oben beschriebenen MAPK2-Assay zu initiieren.

In assay [8] the test system is PKA (h). The assay can be described thus: Kinase inhibition assay (33P-ATP, P30 filter, scintillation counting): PKA. As to conditions: 30µM Testsubstanz (100 µM ATP); 40 min.
The target in assay [9] is PKB (h) (Homo sapiens, UniProt P31749). The assay can be described thus: Kinase inhibition assay (33P-ATP, P30 filter, scintillation counting): PKB. As to conditions: 40 min; 30µM Testsubstanz (100 µM ATP); read-out: Hemmung von Kinasen in % PKB (h). The protocol: as §1, §2
Sequence of PKB (h) (P31749 whole entry): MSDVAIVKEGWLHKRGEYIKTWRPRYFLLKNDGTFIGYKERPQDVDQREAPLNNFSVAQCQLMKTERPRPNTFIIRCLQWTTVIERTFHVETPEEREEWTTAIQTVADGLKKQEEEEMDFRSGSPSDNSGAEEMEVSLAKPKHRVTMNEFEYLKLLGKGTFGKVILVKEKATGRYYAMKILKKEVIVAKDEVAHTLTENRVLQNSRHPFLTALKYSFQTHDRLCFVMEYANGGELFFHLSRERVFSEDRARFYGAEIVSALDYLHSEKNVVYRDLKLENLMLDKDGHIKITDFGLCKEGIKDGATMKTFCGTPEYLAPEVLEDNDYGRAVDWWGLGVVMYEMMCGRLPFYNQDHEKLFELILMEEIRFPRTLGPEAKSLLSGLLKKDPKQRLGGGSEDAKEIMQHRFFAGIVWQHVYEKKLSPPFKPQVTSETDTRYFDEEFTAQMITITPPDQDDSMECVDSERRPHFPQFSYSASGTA
as §3, with “PKBα (h)(5-10mU) wird in” for “c-RAF (ha)(5-10 mU) in”, “µl” for “µl wird”, “mit 8” for “mit 25”, “mM MOPS” for “mM Tris”, “pH 7.0, 0.2” for “pH 7.5,.0.02”, “mM EDTRA, 30 µM GRPRTSSFAEGKK,” for “mM EGTA, 0.66 mg/ml Myelin-Basisprotein,”

Assay [10] has as its system ROCKII (h). The assay can be described thus: Kinase inhibition assay (33P-ATP, P30 filter, scintillation counting): ROCK-II. As to conditions: 30µM Testsubstanz (100 µM ATP); 40 min.
Assay [11] deals with SAPK2a (h) (Homo sapiens, UniProt Q16539). The assay can be described thus: Kinase inhibition assay (33P-ATP, P30 filter, scintillation counting): SAPK2a. As to conditions: 30µM Testsubstanz (100 µM ATP); read-out: Hemmung von Kinasen in % SAPK2a (h). Here is the method: as §1, §2
Sequence of SAPK2a (h) (Q16539 whole entry): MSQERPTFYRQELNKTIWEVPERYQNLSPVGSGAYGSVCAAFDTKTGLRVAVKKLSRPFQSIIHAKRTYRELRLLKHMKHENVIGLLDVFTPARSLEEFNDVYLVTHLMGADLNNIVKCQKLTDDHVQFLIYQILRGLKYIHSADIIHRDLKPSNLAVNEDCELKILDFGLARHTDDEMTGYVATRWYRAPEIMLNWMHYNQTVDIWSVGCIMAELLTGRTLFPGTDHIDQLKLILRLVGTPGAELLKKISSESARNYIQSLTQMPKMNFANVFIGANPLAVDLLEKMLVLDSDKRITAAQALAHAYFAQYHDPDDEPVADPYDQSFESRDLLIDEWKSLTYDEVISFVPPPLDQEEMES
as §3, with “SAPK2a (h) wird” for “c-RAF (ha)(5-10 mU)”, “µl” for “µl wird”, “7,5, 0.02” for “7.5,.0.02”, “0.33” for “0.66”

Sequence of c-RAF (h) (P04049 whole entry): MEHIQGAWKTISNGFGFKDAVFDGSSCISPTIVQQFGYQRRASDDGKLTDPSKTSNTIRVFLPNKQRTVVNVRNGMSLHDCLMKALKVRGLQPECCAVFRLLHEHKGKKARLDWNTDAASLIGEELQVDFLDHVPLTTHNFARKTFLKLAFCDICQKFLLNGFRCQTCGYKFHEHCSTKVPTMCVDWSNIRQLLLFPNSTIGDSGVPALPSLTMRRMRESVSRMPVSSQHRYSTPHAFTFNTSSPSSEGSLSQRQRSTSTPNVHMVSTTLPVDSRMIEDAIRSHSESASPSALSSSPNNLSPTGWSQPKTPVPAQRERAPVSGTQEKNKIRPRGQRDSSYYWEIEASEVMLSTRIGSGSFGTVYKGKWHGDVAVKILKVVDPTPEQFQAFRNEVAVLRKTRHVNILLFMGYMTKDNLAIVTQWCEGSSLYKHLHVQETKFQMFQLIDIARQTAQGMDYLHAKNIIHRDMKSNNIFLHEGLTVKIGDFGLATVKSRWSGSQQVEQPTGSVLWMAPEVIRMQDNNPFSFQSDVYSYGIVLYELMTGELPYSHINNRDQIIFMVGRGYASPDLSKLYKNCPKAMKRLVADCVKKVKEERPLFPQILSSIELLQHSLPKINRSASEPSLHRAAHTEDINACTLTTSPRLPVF
Sequence of GSK3β (h) (P49841 whole entry): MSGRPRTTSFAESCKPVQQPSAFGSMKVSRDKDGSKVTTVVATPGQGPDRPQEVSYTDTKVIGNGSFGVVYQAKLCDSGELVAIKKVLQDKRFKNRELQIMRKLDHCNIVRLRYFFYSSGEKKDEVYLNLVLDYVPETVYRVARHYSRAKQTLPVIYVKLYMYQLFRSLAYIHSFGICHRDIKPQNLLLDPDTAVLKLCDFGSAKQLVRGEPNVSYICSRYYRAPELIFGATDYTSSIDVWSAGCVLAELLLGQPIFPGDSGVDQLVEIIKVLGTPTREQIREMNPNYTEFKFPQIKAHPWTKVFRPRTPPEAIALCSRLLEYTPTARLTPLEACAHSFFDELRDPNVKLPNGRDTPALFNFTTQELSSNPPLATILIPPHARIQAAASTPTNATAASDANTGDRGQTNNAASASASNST
Sequence of Lck (h) (P06239 whole entry): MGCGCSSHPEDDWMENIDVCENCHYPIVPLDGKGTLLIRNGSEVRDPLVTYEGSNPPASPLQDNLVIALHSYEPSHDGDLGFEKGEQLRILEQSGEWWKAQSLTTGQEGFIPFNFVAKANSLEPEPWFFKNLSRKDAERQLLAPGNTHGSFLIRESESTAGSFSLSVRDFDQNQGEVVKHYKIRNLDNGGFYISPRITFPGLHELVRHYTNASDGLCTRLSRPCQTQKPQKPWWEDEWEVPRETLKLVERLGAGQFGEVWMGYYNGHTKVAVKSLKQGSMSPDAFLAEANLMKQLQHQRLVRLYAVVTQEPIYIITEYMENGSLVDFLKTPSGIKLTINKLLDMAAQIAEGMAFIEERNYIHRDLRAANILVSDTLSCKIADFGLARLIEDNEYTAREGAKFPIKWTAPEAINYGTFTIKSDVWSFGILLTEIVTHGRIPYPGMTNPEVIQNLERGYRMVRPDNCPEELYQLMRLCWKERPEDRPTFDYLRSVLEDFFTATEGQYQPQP
Sequence of MEK1 (h) (Q02750 whole entry): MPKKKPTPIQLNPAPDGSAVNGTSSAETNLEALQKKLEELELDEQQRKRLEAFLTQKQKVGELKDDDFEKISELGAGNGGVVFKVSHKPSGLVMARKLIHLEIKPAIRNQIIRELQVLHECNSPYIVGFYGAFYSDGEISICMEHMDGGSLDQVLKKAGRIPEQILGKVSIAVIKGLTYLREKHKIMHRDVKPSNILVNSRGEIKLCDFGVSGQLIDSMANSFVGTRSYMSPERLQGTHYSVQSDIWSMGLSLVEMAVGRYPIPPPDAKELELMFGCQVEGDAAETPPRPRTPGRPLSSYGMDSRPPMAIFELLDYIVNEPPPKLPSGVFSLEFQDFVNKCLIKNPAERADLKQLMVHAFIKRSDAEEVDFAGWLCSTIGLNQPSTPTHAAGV

As to `Cn1c(-c2ccccc2)nc2c(Sc3ccc(F)cc3)ncnc21` [Verbd. 24, 6-(4-Fluoro-phenylsulfanyl)-9-methyl-8-phenyl-9H-purin], the inhibition at 30 µM in assay [1] was 14%; in assay [2], 22%; in assay [3], 16%; in assay [4] it was 20%; in [5], 11%; in [6], 1%. Besides, the figures for the inhibition at 30 µM in assay [7], in assay [9] and in assay [11] were 7%, 29% and 29%, respectively. Besides, in [8], the “Hemmung von Kinasen in % PKA (h)” value turned out to be 3%. Also, the “Hemmung von Kinasen in % ROCKII (h)” value in assay [10] stood at 9%.

For `Fc1ccc(Sc2ncnc3[nH]cnc23)cc1` [Verbd. 16, 6-(4-Fluoro-phenylsulfanyl)-9H-purin], the inhibition at 30 µM is 29% in [1]; 0% in [2]; 8% in [3]; 13% in [4]; 2% in assay [5]; 12% in assay [6]. The inhibition at 30 µM in assay [7] came out at 2%; in [9] it was 0%; in [11], 72%. Further, in [8], the “Hemmung von Kinasen in % PKA (h)” value stood at 10%. Moreover, the “Hemmung von Kinasen in % ROCKII (h)” value in [10] came out at 37%.

Regarding `c1ccc(Sc2ncnc3[nH]ccc23)cc1` [Verbd. 52, 4-Phenylsulfanyl-7H-pyrrolo[2,3-d]pyrimidin], the inhibition at 30 µM in [1] amounted to 22%; in assay [2], 11%; in assay [3] it was 0%; in [4], 56%; in assay [5], 11%; in assay [6], 4%. The inhibition at 30 µM turned out to be 41% in assay [7], 0% in assay [9] and 56% in assay [11]. The “Hemmung von Kinasen in % PKA (h)” value in assay [8] was determined as 0%. For the same compound, the “Hemmung von Kinasen in % ROCKII (h)” value in [10] came out at 36%.

As to `Fc1ccc(Cn2cnc3c(Sc4ccc(F)cc4)ncnc32)cc1` [Verbd. 77, 9-(4-Fluoro-benzyl)-6-(4-fluoro-phenylsulfanyl)-9H-purin], the inhibition at 30 µM in [1] amounted to 0%; in assay [2], 8%; in assay [3], 0%; in assay [4], 16%; in assay [5], 6%; in [6], 0%. The figures for the inhibition at 30 µM in assay [7], in assay [9] and in [11] were 3%, 0% and 27%, respectively. The “Hemmung von Kinasen in % PKA (h)” value in assay [8] was determined as 0%. Moreover, the “Hemmung von Kinasen in % ROCKII (h)” value in assay [10] was determined as 0%.

Consider `c1ccc(Sc2ncnc3[nH]cnc23)cc1` [Verbd. 15, 6-Phenylsulfanyl-9H-purin], for which the inhibition at 30 µM was 6% in assay [1]; 1% in assay [2]; 0% in assay [3]; 5% in assay [4]; 3% in assay [5]; 13% in assay [6]. Also, the inhibition at 30 µM in assay [7] turned out to be 0%; in assay [9] it was 0%; in assay [11] it was 54%. Besides, the “Hemmung von Kinasen in % PKA (h)” value in [8] stood at 8%. In addition, the “Hemmung von Kinasen in % ROCKII (h)” value in assay [10] was 33%.

For `Cn1cnc2c(Nc3ccccc3)ncnc21` [Verbd. 13, (9-Methyl-9H-purin-6-yl)-phenyl-amin], the inhibition at 30 µM in assay [1] came to 44%; in assay [2], 26%; in assay [3], 5%; in assay [4] it was 18%; in assay [5], 16%; in assay [6], 42%. Also, the inhibition at 30 µM was determined as 4% in assay [7], 0% in assay [9] and 0% in [11]. In addition, the “Hemmung von Kinasen in % PKA (h)” value in assay [8] was found to be 0%. Besides, the “Hemmung von Kinasen in % ROCKII (h)” value in [10] came out at 0%.

For `COc1ncnc2ncn(Cc3ccc(F)cc3)c12` [Verbd. 44, 7-(4-Fluoro-benzyl)-6-methoxy-7H-purin], the inhibition at 30 µM in [1] turned out to be 0%; in assay [2], 5%; in assay [3] it was 30%; in [4] it was 0%; in [5], 19%; in assay [6], 3%. For the same compound, the inhibition at 30 µM in assay [7] is 3%; in [9] it was 0%; in assay [11], 8%. In addition, the “Hemmung von Kinasen in % PKA (h)” value in [8] amounted to 7%. Further, the “Hemmung von Kinasen in % ROCKII (h)” value in assay [10] worked out at 1%.

Turning to `Cn1cnc2c(Sc3ccc(F)cc3)ncnc21` [Verbd. 18, 6-(4-Fluoro-phenylsulfanyl)-9-methyl-9H-purin], the inhibition at 30 µM in assay [1] is 12%; in assay [2], 0%; in [3] it was 9%; in [4] it was 2%; in [5] it was 9%; in assay [6] it was 12%. For the same compound, the values for the inhibition at 30 µM in assay [7], in assay [9] and in [11] were 6%, 0% and 38%, respectively. Besides, the “Hemmung von Kinasen in % PKA (h)” value in [8] was 1%. For the same compound, in assay [10], the “Hemmung von Kinasen in % ROCKII (h)” value is reported as 6%.

As to `Nc1ncnc2ncn(Cc3ccc(F)cc3)c12` [Verbd. 43, 7-(4-Fluoro-benzyl)-7H-purin-6-ylamin], the inhibition at 30 µM in assay [1] turned out to be 28%; in assay [2], 0%; in assay [3], 25%; in [4] it was 0%; in assay [5], 26%; in assay [6] it was 5%. Also, the inhibition at 30 µM came to 8% in assay [7], 0% in assay [9] and 8% in assay [11]. Besides, the “Hemmung von Kinasen in % PKA (h)” value in assay [8] amounted to 7%. The “Hemmung von Kinasen in % ROCKII (h)” value in [10] came out at 6%.
